The results in this text go back to EPA's ToxValDB 9.5 (doi:10.2903/j.efsa.2010.1871).

≈ marks a conversion by molar mass, not a printed value. Some results are limits rather than exact numbers.

One series relates to Apis mellifera. The note with it: acute; duration: 48 hours; dermal; mortality.
For a further series, the system named is Lepomis macrochirus. The note with it: acute; duration: 96 hours; mortality.
In the next series the test system is Pimephales promelas. The note with it: chronic/long-term; duration: 35 days; growth.
A further series has as its system Tagia sp. The note with it: acute; duration: 14 days; mortality.
The test system of another series is Mus musculus. The note with it: acute; oral; mortality.
The subject of another series is Bibionidae. The note with it: chronic/long-term; duration: 28 days; other.
In a further series the test system is Canidae. The note with it: oral, Dog Other, hematological.
The next series deals with Daphnia magna. The note with it: chronic/long-term, duration: 21 days.
The subject of another series is Macromiidae. The note with it: acute; duration: 96 hours; growth.
In another series the test system is Adalia sp. Description: LR50; higher = less toxic. The note with it: chronic/long-term; duration: 21 days; mortality.
Setting [1] is: reproduction developmental, reproduction.

What is called NOAEL is the highest dose or exposure tested at which no adverse effect was seen.

On to `CCc1ccc(C(=O)NN(C(=O)c2cc(C)cc(C)c2)C(C)(C)C)cc1` [Tebufenozide], for which the LD50 in the series on Apis mellifera is above 234 µg/piece; in the series with Rattus norvegicus (acute, oral, mortality), above 5000 mg/kg; with Mus musculus it was above 5000 mg/kg; in the series on Colinus virginianus (acute, oral, mortality), above 2150 mg/kg. Moreover, the LC50 in the series on Lepomis macrochirus is 3 mg/L (≈ 8.51 µM); in the series with Tagia sp., above 1000 mg/kg; in the series on Colinus virginianus (acute, oral, diet, mortality) it was above 814 mg/kg. In addition, the NOEC is 0.71 mg/L with Pimephales promelas; at least 1000 mg/kg with Tagia sp.; 0.0057 mg/L in the series on Bibionidae; 0.029 mg/L with Daphnia magna (growth); 0.0078 mg/L with Daphnia magna (reproduction); 0.046 mg/L with Macromiidae. The no observed adverse effect level (NOAEL) in the series on Rattus norvegicus (setting [1]) stood at 15 mg/kg-day; in the series with Canidae (chronic, duration: 52 weeks), 2 mg/kg-day; in the series with Canidae (subchronic, duration: 90 days), 2 mg/kg-day; with Colinus virginianus (setting [1]) it was 48 mg/kg-day. In the series with Adalia sp., the LR50 is above 128 g/ha.
